Source: patent US12421249B2, “Inhibitors of APOL1 and methods of using same” (Vertex Pharmaceuticals Incorporated, priority 2020, dated 2025)
Like-named read-outs stand apart in the source and are kept apart here.

How the values were obtained:
APOL1 G1 = target: T1, APOL1 G1 (Homo sapiens, UniProt O14791, I384M/S342G); experiment: Trypanosoma brucei brucei Lysis Assay Using APOL1 Recombinant Protein (AlamarBlue viability readout); format: cell-based; details: for IC50: IP50 = IC50 for cell proliferation, read-out: Trypanosome Assay IP50; for Emax: read-out: Trypanosome Assay Max Activity (%)
T1 sequence (O14791 28-398 S342G/I384M): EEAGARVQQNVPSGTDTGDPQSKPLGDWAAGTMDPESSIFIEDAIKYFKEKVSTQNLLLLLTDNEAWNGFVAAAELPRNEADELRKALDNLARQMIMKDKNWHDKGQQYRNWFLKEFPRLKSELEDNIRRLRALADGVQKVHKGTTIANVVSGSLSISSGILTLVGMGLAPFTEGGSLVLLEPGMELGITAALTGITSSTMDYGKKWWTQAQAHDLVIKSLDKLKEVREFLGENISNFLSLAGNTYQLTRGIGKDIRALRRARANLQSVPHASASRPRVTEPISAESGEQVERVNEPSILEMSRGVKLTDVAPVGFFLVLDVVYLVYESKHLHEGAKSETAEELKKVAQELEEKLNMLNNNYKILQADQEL
Text: Trypanosoma brucei brucei is a blood stream parasite to which human, gorillas, and baboons are immune due to the presence of the APOL1 protein in their HDL particles. The protein is uptaken by the parasite via the TbHpHb receptor located in its flagellar pocket and is bonded by the Hpr protein contained in the HDL particles which triggers the receptor endocytosis by the parasite.
Following endocytosis, the formed vesicle containing the HDL particle matures from early to late endosome, and subsequently to lysosome. The concomitant pH change in the lumen of the vesicle triggers the insertion of the APOL1 protein into the membrane of the late endosome/lysosome and hereby triggers lysosomal membrane permeabilization and as a further downstream event, trypanosome lysis. Trypanosoma brucei brucei is sensitive to lysis by all three APOL1 variants (G0, G1, and G2).
The Trypanosoma brucei brucei lysis assay is a lysis assay of the parasite using recombinant APOL1 protein variant followed by a fluorescent detection method of viability by the addition of AlamarBlue reagent to the assay well, a general metabolic redox indicator (AlamarBlue assay).
Briefly, the AlamarBlue active compound, resazurin, a blue, water soluble, non-toxic and cell permeable molecule, which can be followed by absorbance, is reduced by various metabolic pathways into resorufin, a red compound which can be followed by either absorbance or fluorescence. The assay allows the calculation of the percent viability (percent of living Trypanosomes remaining in each well) at the end of a lysis relative to the untreated condition by interpolation of fluorescent values (FLU) on a standard curve with a known amount of seeded trypanosome/well.
Trypanosoma brucei brucei (ATCC, Cat. No. PRA-382)
• Lister 427 VSG 221 bloodstream form.
Equipment • E1-Clip Tip pipette 12 channel adjustable 2-125 μL, Cat. No. 4672070BT • ThermoFisher MultiDrop 384, Cat. No. 5840300 • Multidrop • Agilent Bravo, Cat. No. G5409A • Bravo • SpectraMax M5 Assay Ready Plates (ARPs) • ARPs comes in two formats: • […] final top concentration with a 2.5 fold dilution down. • […] final top concentration with a 3 fold dilution down. • Both have a 10 point Dose response. • 0.1% DMSO final in the Black Assay Plate. • Compounds are diluted 1000 fold in the Black Assay Plate. • Each plate is designed for 14 compounds in duplicate. • In the final Black Assay Plate: • Column 1: Media only (no APOL1) (100% viable) • Column 2-23: 0.05 μg/mL APOL1 (˜EC90) (10% viable with APOL1) • Column 24: 0.1 μg/mL APOL1 (EC100) (Approx. […] Step 2, Day 4 • Centrifuge at 800×g for 5 minutes at room temperature. • Resuspend in 1 mL media. • Make a 1:25 fold dilution (10 μL/240 μL media). • Count on a hemocytometer (after adding parasites). • Let sit for 1-2 minutes for the parasites to settle. • Count should be approximately 100 viable motile parasites/16 grid or approximately 25×10^6 parasites/flask. • Passage the parasites by adding 1×10^6 parasites/T75 flask in 20 mL media. • Passage the parasites by adding 2.33×10^6 parasites/T175 flask in 46.6 mL media. • For every T75 flask should make enough for approximately 1.5×384 well assay plates. • For every T175 flask should make enough for approximately 3.8×384 well assay plates. Step 3, Day 6 • Centrifuge at 800×g for 5 minutes. • Resuspend in 3 mL assay media (No phenol red, no FBS) per 75 starting flask. • Resuspend in 7 mL assay media (No phenol red, no FBS) per 175 flask • Make a 1:25 fold dilution. • Count by hemocytometer. • Every T75 flask set up should have approximately 75×10^6 parasites/flask (verify doubling time=8.7 hours±1 hour). • Every T175 flask set up should have approximately 175×10^6 parasites/flask (verify doubling time=8.7 hours±1 hour). • Require 46×10^6 parasites per 384 well plate (at 120,000 parasites per well). […]

APOL1 = target: T2, APOL1 (Homo sapiens, UniProt O14791); experiment: Multi-Tox Assay (MultiTox-Fluor Multiplex Cytotoxicity Assay in tet-inducible APOL1 T-REx-HEK293 cells; Table 46 does not say which APOL1 variant G0/G1/G2); format: cell-based; details: APOL1 variant not given; for IC50: IP50 = IC50 for cell proliferation
T2 sequence (O14791 1-398 S342G/I384M): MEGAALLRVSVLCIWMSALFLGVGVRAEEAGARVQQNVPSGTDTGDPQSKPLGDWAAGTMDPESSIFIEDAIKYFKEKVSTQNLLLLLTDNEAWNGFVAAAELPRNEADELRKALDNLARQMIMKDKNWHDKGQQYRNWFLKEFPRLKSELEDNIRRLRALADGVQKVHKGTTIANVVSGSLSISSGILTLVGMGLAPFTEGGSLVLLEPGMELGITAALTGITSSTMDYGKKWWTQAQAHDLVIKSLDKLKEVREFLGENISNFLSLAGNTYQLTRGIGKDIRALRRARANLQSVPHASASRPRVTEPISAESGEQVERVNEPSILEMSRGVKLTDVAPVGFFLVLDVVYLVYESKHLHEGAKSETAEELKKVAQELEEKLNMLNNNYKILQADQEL

SMILES | IC50 (APOL1 G1; Trypanosome Assay) | Emax (APOL1 G1; Trypanosome Assay) | IC50 (APOL1) | Emax (APOL1 G1) | IC90 (APOL1) | Multi-Tox Assay Max Activity (%) (APOL1)
COc1ccc(C2CC3(CC(C)N2)OCCc2cc(Cl)sc23)nn1 (mixture of isomers) [Compound 76] | < 0.05 µM | 106% | < 0.05 µM |  |  | 
COc1cccc(C2CC3(CC(C)N2)OCCc2cc(Cl)sc23)n1 (mixture of isomers) [Compound 135] | 0.05 to 0.5 µM | 94% | 0.05 to 0.5 µM |  |  | 
CC1CC2(CC(C)N1)OCCc1cc(Cl)sc12 (mixture of isomers) [Compound 194, 2-chloro-2′,6′-dimethyl-spiro[4,5-dihydrothieno[2,3-c]pyran-7,4′-piperidine]] | 0.05 to 0.5 µM |  | 0.05 to 0.5 µM | 117% |  | 
CC1CC2(CC(CO)N1)OCCc1cc(Cl)sc12 (mixture of isomers) [Compound 210, (2-chloro-6′-methyl-spiro[4,5-dihydrothieno[2,3-c]pyran-7,4′-piperidine]-2′-yl)methanol] | > 0.5 µM | 104% | > 0.5 µM |  |  | 
CC1CC2(CC(C3CC3)N1)OCCc1cc(Cl)sc12 (mixture of isomers) [Compound 211, (2S,6S)-2-chloro-2′-cyclopropyl-6′-methyl-spiro[4,5-dihydrothieno[2,3-c]pyran-7,4′-piperidine]] | 0.05 to 0.5 µM | 113% | < 0.05 µM |  | 0.05 to 0.5 µM | 99.6%
CC1CC2(CC(C(C)C)N1)OCCc1cc(Cl)sc12 (mixture of isomers) [Compound 214] | 0.05 to 0.5 µM | 109% | < 0.05 µM |  |  | 
CCC1CC2(CC(C)N1)OCCc1cc(Cl)sc12 (mixture of isomers) [Compound 215] | 0.05 to 0.5 µM | 112% | < 0.05 µM |  |  | 
CC1CC2(CC(C3CCOCC3)N1)OCCc1cc(Cl)sc12 (mixture of isomers) [Compound 216] | 0.05 to 0.5 µM | 104% | 0.05 to 0.5 µM |  |  | 
CC1CC2(CC(C3CC3)N1)OCCc1cc(Cl)sc12 (mixture of isomers) [Compound 217] | < 0.05 µM | 110% | < 0.05 µM |  |  | 
CC1CC2(CC(C3CCC3)N1)OCCc1cc(Cl)sc12 (mixture of isomers) [Compound 218] | 0.05 to 0.5 µM | 111% | < 0.05 µM |  |  | 
CC1CC2(CC(c3cccnc3)N1)OCCc1cc(Cl)sc12 (racemic) [Compound 20, 2-chloro-2′-methyl-6′-(3-pyridyl)spiro[4,5-dihydrothieno[2,3-c]pyran-7,4′-piperidine]] | < 0.05 µM |  | < 0.05 µM | 116% |  | 
Cc1cc([C@@H]2C[C@]3(C[C@H](C)N2)OCCc2cc(Cl)sc23)ccn1 (racemic) [Compound 21, (2S)-2-chloro-2′-methyl-6′-(2-methyl-4-pyridyl)spiro[4,5-dihydrothieno[2,3-c]pyran-7,4′-piperidine]] | < 0.05 µM | 108% | < 0.05 µM |  |  | 
CC1CC2(CC(c3cn(C)cn3)N1)OCCc1cc(Cl)sc12 (racemic) [Compound 22] | < 0.05 µM | 129% | < 0.05 µM |  | < 0.05 µM | 99.7%
Cc1noc2cc([C@@H]3C[C@]4(C[C@H](C)N3)OCCc3cc(Cl)sc34)ccc12 (racemic) [Compound 25] | < 0.05 µM | 109% | < 0.05 µM |  |  | 100.0%
C[C@H]1C[C@@]2(C[C@@H](c3cnc4c(cnn4C)c3)N1)OCCc1cc(Cl)sc12 (racemic) [Compound 26] | < 0.05 µM | 110% | < 0.05 µM |  |  | 100.0%
C[C@H]1C[C@@]2(C[C@@H](c3ccc4oc(=O)n(C)c4c3)N1)OCCc1cc(Cl)sc12 (racemic) [Compound 28] | < 0.05 µM | 104% | < 0.05 µM |  | < 0.05 µM | 100.0%
Cc1cc([C@@H]2C[C@]3(C[C@H](C)N2)OCCc2cc(Cl)sc23)no1 (racemic) [Compound 29] | < 0.05 µM | 109% | < 0.05 µM |  | < 0.05 µM | 100.0%
C[C@H]1C[C@@]2(C[C@@H](c3ccc4c(c3)n(C)c(=O)n4C)N1)OCCc1cc(Cl)sc12 (racemic) [Compound 32] | < 0.05 µM | 116% | < 0.05 µM |  | < 0.05 µM | 99.6%
COCCOCCOc1ccc([C@@H]2C[C@]3(C[C@H](C)N2)OCCc2cc(Cl)sc23)cc1 (racemic) [Compound 36] | < 0.05 µM | 118% | < 0.05 µM |  | < 0.05 µM | 100.0%
C[C@H]1C[C@@]2(C[C@@H](c3cn(C)nn3)N1)OC[C@H](O)c1cc(Cl)sc12 [Compound 177, (2′S,4R,6′S,7S)-2-chloro-2′-methyl-6′-(1-methyltriazol-4-yl)spiro[4,5-dihydrothieno[2,3-c]pyran-7,4′-piperidine]-4-ol] | 0.05 to 0.5 µM | 107% |  |  |  | 
C[C@H]1C[C@@]2(C[C@@H](c3cn(CC(=O)N4CCCCC4)nn3)N1)OCC(F)(F)c1cc(Cl)sc12 [Compound 356] |  |  | 0.05 to 0.5 µM |  | 0.05 to 0.5 µM | 99.0%
C[C@H]1C[C@@]2(C[C@@H](c3cn(CC4(CO)CC4)nn3)N1)OCC(F)(F)c1cc(Cl)sc12 [Compound 357] |  |  | 0.05 to 0.5 µM |  |  | 99.0%
C[C@H]1C[C@@]2(C[C@@H](c3cn(Cc4cnc5cnccn45)nn3)N1)OCC(F)(F)c1cc(Cl)sc12 [Compound 358] |  |  | < 0.05 µM |  |  | 98.0%
C[C@H]1C[C@@]2(C[C@@H](c3cn(CCCO)nn3)N1)OCC(F)(F)c1cc(Cl)sc12 [Compound 359] |  |  | < 0.05 µM |  |  | 98.0%
COc1ccc(Cn2cc([C@@H]3C[C@]4(C[C@H](C)N3)OCC(F)(F)c3cc(Cl)sc34)nn2)cn1 [Compound 360] |  |  | 0.05 to 0.5 µM |  |  | 99.0%
